For 14 compounds, IC50 and EC50 results are on record in patent publication US20250206738A1, “WRN INHIBITORS” (Nimbus Wadjet, Inc., priority 2023, published 2025).

Like-named read-outs stand apart in the source and are kept apart here.

Assay [1] has as its target T1, human Werner helicase (WRN, Uniprot Q14191, amino acids 517-1235 with L1074F point mutation; WRN-BV08) (Homo sapiens, UniProt Q14191, L1074F).
T1 construct: Uniprot Q14191, amino acids 517-1235 with L1074F point mutation; 8xHis (C, cleaved yes); TEV cleavage site (ENLYFQG) (C, cleaved yes); made in house; host or cells: Sf9 insect cells (baculovirus, pFastBac)
As to the kind of experiment: WRN (BV08) ADP-Glo assay. In kind it is biochemical. The note with it: WRN-BV08 (aa 517-1235, L1074F); read-out: ADP-Glo_hWRN_IC50. The method, boiled down: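 WRN 517-1235 (L1074F, untagged, Sf9-expressed), 0.15 nM, preincubated with compound 15 min at 25 °C, then 60 min with […] and 0.1 nM DNA duplex in Bicine pH 7.5, 1 mM MgCl2, 1% DMSO. ADP-Glo luminescence; % inhibition vs NSC-617145 control, four-parameter IC50 fit.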
For orientation: In ADP-Glo the light output rises with the ADP produced.

Assay [2] concerns p21 induction in HCT 116 cells. As to the kind of experiment: p21 induction in cells (In-Cell Western, p21/GAPDH ratio). The note with it: 24 h compound incubation, read-out: P21_EC50. It counts as cell-based. The method, then:
Example 3: Method for Determining Effect on p21 Induction in Cells
The colon carcinoma cell line HCT 116 was obtained from ATCC and cultured in growth medium consisting of Mccoy's 5A Medium (Gibco 16600108) supplemented with 10% FBS (Transgene FS201-02) and 100 units/mL penicillin-streptomycin (Gibco 15140122) and maintained at 37° C. under 5% CO2. On the day of seeding, 2,000 cells in 30 μL of culture media were plated per well to Poly-D-Lysine 384 Well Black Clear Plates (Biocoat 356663) and incubated overnight at 37° C. under 5% CO2. The following day, compounds were serially diluted in DMSO for a total of 11 test concentrations. The typical starting concentration of compounds was 10 μM with 2-fold dilutions. Next, 150 nL of diluted compound was added in duplicate to the assay plate, using an Echo 655 (Labcyte). The plate was centrifuged at 500 RPM for 1 min and then incubated at 37° C. under 5% CO2 for 24 h. After 24h, medium was removed, and cells were fixed by adding 40 μL of 4% paraformaldehyde solution to each well and incubated for 20 min at room temperature. The plate was then washed 4 times with 100 μL per well of wash buffer (PBS with 0.1% Tween-20) using a microplate washer. Next, 30 μL of ice-cold methanol was added to each well and the plate was incubated at −20° C. for 10 min. The plate was washed 4 times with 100 μL per well of wash buffer by a microplate washer, then 30 μL per well of blocking buffer (Intercept PBS blocking buffer (LI-COR 927-70001) with 0.05% Tween-20) was added and the plate was incubated at room temperature with shaking for 2h. Next, to each test well, 20 μL of primary antibody solution (p21 Waf1/CIP (12D1) RabbitmAb (Cell Signaling Technologies 2947) diluted 1:1000 and GAPDH (D4C6R) Mouse mAb (Cell Signaling Technologies 97166) diluted 1:2000 in blocking buffer) was added and the plate was placed at 4° C., overnight. The following day, the plate was washed 5 times with 100 μL per well of wash buffer using a microplate washer for 5 min. 20 μL per well of secondary antibody (IRDye 680CW Goat anti-Mouse IgG (H+L) (LI-COR 926-68070) diluted 1: 2000 in Blocking Buffer and IRDye 800CW Goat anti-Rabbit IgG (H+L) (LI-COR 926-32211) diluted 1: 2000 in Blocking Buffer) was then added and the plate was stored for 2h in the dark at room temperature with shaking. The plate was then washed 4 times with 100 μL per well of wash buffer again using a microplate washer. Finally, the p21 signal and the GAPDH signal were quantified using a LI-COR Odyssey CLx Imager machine reading at 800 nm and 700 nm, respectively. Each plate contained DMSO control (low control) and an internal reference WRN inhibitor (high control) respectively. For quantitation, the 800 nm/700 nm ratio was calculated for each well to give fold p21 induction and then percent activation for each compound well was calculated as follows (100×(ratio cpd well−ratio low control)/(ratio high control−ratio low control)). EC50 values for each compound were generated after non-linear regression curve fitting using commercially available software.

T1 sequence (Q14191 with tags, fused parts or gaps L1074F): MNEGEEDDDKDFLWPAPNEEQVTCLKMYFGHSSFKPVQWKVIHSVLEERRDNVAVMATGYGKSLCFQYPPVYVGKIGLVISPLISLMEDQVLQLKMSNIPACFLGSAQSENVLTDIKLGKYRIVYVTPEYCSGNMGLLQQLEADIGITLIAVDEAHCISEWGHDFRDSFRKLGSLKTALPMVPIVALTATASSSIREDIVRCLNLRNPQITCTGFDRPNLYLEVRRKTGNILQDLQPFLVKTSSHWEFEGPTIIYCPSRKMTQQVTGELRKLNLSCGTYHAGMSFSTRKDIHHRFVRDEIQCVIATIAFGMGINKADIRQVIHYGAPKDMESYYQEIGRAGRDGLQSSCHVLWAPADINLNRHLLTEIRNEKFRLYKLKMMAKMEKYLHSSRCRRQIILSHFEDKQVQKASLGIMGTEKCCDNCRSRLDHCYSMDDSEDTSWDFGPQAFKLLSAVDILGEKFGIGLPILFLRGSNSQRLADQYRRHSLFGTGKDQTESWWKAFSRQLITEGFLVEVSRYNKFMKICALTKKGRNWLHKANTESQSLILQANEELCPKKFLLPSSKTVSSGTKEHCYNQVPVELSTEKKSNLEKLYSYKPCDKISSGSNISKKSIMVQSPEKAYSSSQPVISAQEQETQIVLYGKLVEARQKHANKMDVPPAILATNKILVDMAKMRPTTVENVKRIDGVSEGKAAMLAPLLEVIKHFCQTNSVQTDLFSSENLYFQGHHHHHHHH

Regarding `CCc1c(N2CCN(C(=O)c3c(OC)ncc(C)c3O)CC2)c(=O)n2nc(-c3ccnc(C)c3)nc2n1CC(=O)NC12CC(C(C)C)(C1)C2` [I-217, 2-(5-ethyl-6-(4-(4-hydroxy-2-methoxy-5-methylnicotinoyl)piperazin-1-yl)-2-(2-methylpyridin-4-yl)-7-oxo-[1,2,4]triazolo[1,5-a]pyrimidin-4(7H)-yl)-N-(3-isopropylbicyclo[1.1.1]pentan-1-yl)acetamide], the IC50 in assay [1] was in the range of 0.005 to 0.05 µM. In addition, the EC50 in assay [2] (Homo sapiens, HCT-116, 24 h) is at most 0.5 µM.
With `CCc1c(N2CCN(C(=O)c3cccc4ncoc34)CC2)c(=O)n2nc(-c3ccnc(OC)c3)nc2n1CC(=O)NC12CC(C(C)C)(C1)C2` [I-213, 2-(6-(4-(benzo[d]oxazole-7-carbonyl)piperazin-1-yl)-5-ethyl-2-(2-methoxypyridin-4-yl)-7-oxo-[1,2,4]triazolo[1,5-a]pyrimidin-4(7H)-yl)-N-(3-isopropylbicyclo[1.1.1]pentan-1-yl)acetamide], the IC50 in assay [1] lay in the range of 0.005 to 0.05 µM. In assay [2] (Homo sapiens, HCT-116, 24 h), the EC50 was 0.5 to 2 µM.
For the compound `CCc1c(N2CCN(C(=O)c3cc(C(C)(C)O)cnc3OC)[C@H]3CC[C@@H]32)c(=O)c2nn(C3=CCOCC3)nc2n1CC(=O)NC12CC(C3CC3)(C1)C2` [I-221, N-(3-cyclopropylbicyclo[1.1.1]pentan-1-yl)-2-(2-(3,6-dihydro-2H-pyran-4-yl)-5-ethyl-6-((1S,6S)-5-(5-(2-hydroxypropan-2-yl)-2-methoxynicotinoyl)-2,5-diazabicyclo[4.2.0]octan-2-yl)-7-oxo-2,7-dihydro-4H-[1,2,3]triazolo[4,5-b]pyridin-4-yl)acetamide], the IC50 in assay [1] was in the range of 0.005 to 0.05 µM. The EC50 in assay [2] (Homo sapiens, HCT-116, 24 h) lay within 2 to 5 µM.
For `CCc1c(N2CCN(C(=O)c3c(O)ccc4ncoc34)CC2)c(=O)n2nc(-c3ccnc(OC)c3)nc2n1CC(=O)NC12COC(C(F)(F)F)(C1)C2` [I-44, 2-(5-ethyl-6-(4-(6-hydroxybenzo[d]oxazole-7-carbonyl)piperazin-1-yl)-2-(2-methoxypyridin-4-yl)-7-oxo-[1,2,4]triazolo[1,5-a]pyrimidin-4(7H)-yl)-N-(1-(trifluoromethyl)-2-oxabicyclo[2.1.1]hexan-4-yl)acetamide], in assay [1], the IC50 was 0.005 to 0.05 µM. In addition, the EC50 in assay [2] (Homo sapiens, HCT-116, 24 h) was in the range of 2 to 5 µM.
Consider `CCc1c(N2CCN(C(=O)c3ncnc(C)c3O)[C@H]3CC[C@@H]32)c(=O)c2nc(N(C)C)cnc2n1CC(=O)NC12CC(OC(F)(F)F)(C1)C2` [I-237, 2-(2-(dimethylamino)-6-ethyl-7-((1S,6S)-5-(5-hydroxy-6-methylpyrimidine-4-carbonyl)-2,5-diazabicyclo[4.2.0]octan-2-yl)-8-oxopyrido[2,3-b]pyrazin-5(8H)-yl)-N-(3-(trifluoromethoxy)bicyclo[1.1.1]pentan-1-yl)acetamide], for which, in assay [1], the IC50 was in the range of 0.005 to 0.05 µM. Moreover, the EC50 in assay [2] (Homo sapiens, HCT-116, 24 h) lay within 2 to 5 µM.
On to `CCc1c(N2CCN(C(=O)c3c(OC)ncc(C4CCOC4)c3O)CC2)c(=O)c2nn(-c3ccnc(OC)c3)nc2n1CC(=O)NC12CC(C(C)C)(C1)C2` (single isomer, unassigned) [I-65], for which, in assay [1], the IC50 lay within 0.005 to 0.05 µM. Besides, in assay [2], the EC50 is at most 0.5 µM.
For the compound `CCc1c(N2CCN(C(=O)c3ncnc(C)c3O)CC2)c(=O)n2nc(C3=CCOCC3)nc2n1CC(=O)NC12COC(C(F)(F)F)(C1)C2` [I-26, 2-(2-(3,6-dihydro-2H-pyran-4-yl)-5-ethyl-6-(4-(5-hydroxy-6-methylpyrimidine-4-carbonyl)piperazin-1-yl)-7-oxo-[1,2,4]triazolo[1,5-a]pyrimidin-4(7H)-yl)-N-(1-(trifluoromethyl)-2-oxabicyclo[2.1.1]hexan-4-yl)acetamide], the IC50 in assay [1] was in the range of 0.1 to 0.5 µM. In assay [2] (Homo sapiens, HCT-116, 24 h), the EC50 was over 5 µM.
As for `CCc1c(N2CCN(C(=O)c3ncnc(C)c3O)CC2)c(=O)c2nc(-c3ccnc(OC)c3)oc2n1CC(=O)NC12CC(C(F)(F)F)(C1)C2` [I-16, 2-(5-ethyl-6-(4-(5-hydroxy-6-methylpyrimidine-4-carbonyl)piperazin-1-yl)-2-(2-methoxypyridin-4-yl)-7-oxooxazolo[5,4-b]pyridin-4(7H)-yl)-N-(3-(trifluoromethyl)bicyclo[1.1.1]pentan-1-yl)acetamide], the IC50 in assay [1] lay within 0.005 to 0.05 µM. In addition, the EC50 in assay [2] (Homo sapiens, HCT-116, 24 h) is over 5 µM.
`CCc1c(N2CCN(C(=O)c3ncccc3C(=O)O)[C@H]3CC[C@@H]32)c(=O)c2nn(-c3ccnc(OC)c3)nc2n1CC(=O)NC12CC(C(C)C)(C1)C2` [I-202, 2-((1S,6S)-5-(5-ethyl-4-(2-((3-isopropylbicyclo[1.1.1]pentan-1-yl)amino)-2-oxoethyl)-2-(2-methoxypyridin-4-yl)-7-oxo-4,7-dihydro-2H-[1,2,3]triazolo[4,5-b]pyridin-6-yl)-2,5-diazabicyclo[4.2.0]octane-2-carbonyl)nicotinic acid]: the IC50 in assay [1] lay within 0.005 to 0.05 µM. In addition, in assay [2] (Homo sapiens, HCT-116, 24 h), the EC50 is over 5 µM.
With `CCc1c(N2CCN(C(=O)c3ncnc(C)c3O)C(C)(C)C2)c(=O)c2nn(-c3ccnc(OC)c3)nc2n1CC(=O)NC12CC(C3CC3)(C1)C2` [I-228, N-(3-cyclopropylbicyclo[1.1.1]pentan-1-yl)-2-(5-ethyl-6-(4-(5-hydroxy-6-methylpyrimidine-4-carbonyl)-3,3-dimethylpiperazin-1-yl)-2-(2-methoxypyridin-4-yl)-7-oxo-2,7-dihydro-4H-[1,2,3]triazolo[4,5-b]pyridin-4-yl)acetamide], the IC50 in assay [1] lay within 0.005 to 0.05 µM. In addition, the EC50 in assay [2] (Homo sapiens, HCT-116, 24 h) was 0.5 to 2 µM.
As to `CCc1c(N2CCN(C(=O)c3ncc4c(c3O)CCO4)CC2)c(=O)n2nc(C3=CCOCC3)nc2n1CC(=O)NC12CC(C(C)C)(C1)C2` [I-15, 2-(2-(3,6-dihydro-2H-pyran-4-yl)-5-ethyl-6-(4-(4-hydroxy-2,3-dihydrofuro[2,3-c]pyridine-5-carbonyl)piperazin-1-yl)-7-oxo-[1,2,4]triazolo[1,5-a]pyrimidin-4(7H)-yl)-N-(3-isopropylbicyclo[1.1.1]pentan-1-yl)acetamide], the IC50 in assay [1] was 0.005 to 0.05 µM. The EC50 in assay [2] (Homo sapiens, HCT-116, 24 h) was 0.5 to 2 µM.
`CCc1c(N2CCN(C(=O)c3cccc4ncoc34)[C@H]3CC[C@@H]32)c(=O)n2nc(C3=CCOCC3)nc2n1CC(=O)NC12CC(C(C)C)(C1)C2` [I-214, 2-(6-((1S,6S)-5-(benzo[d]oxazole-7-carbonyl)-2,5-diazabicyclo[4.2.0]octan-2-yl)-2-(3,6-dihydro-2H-pyran-4-yl)-5-ethyl-7-oxo-[1,2,4]triazolo[1,5-a]pyrimidin-4(7H)-yl)-N-(3-isopropylbicyclo[1.1.1]pentan-1-yl)acetamide]: the IC50 in assay [1] was 0.005 to 0.05 µM. Moreover, the EC50 in assay [2] (Homo sapiens, HCT-116, 24 h) fell in the range of 0.5 to 2 µM.
On the same counts, the results for `CCc1c(C2=CCN(C(=O)c3ncnc(C)c3O)CC2C)c(=O)c2nn(-c3ccnc(OC)c3)nc2n1CC(=O)NC12CC(C(C)C)(C1)C2` (single isomer, unassigned) [I-97] are 0.005 to 0.05 µM and at most 0.5 µM.
Turning to `CCc1c(N2CCN(C(=O)c3ncc4c(c3O)CCO4)CC2)c(=O)n2nc(C3=CCN(C(C)=O)CC3)nc2n1CC(=O)NC12CC(C(F)(F)F)(C1)C2` [I-11, 2-(2-(1-acetyl-1,2,3,6-tetrahydropyridin-4-yl)-5-ethyl-6-(4-(4-hydroxy-2,3-dihydrofuro[2,3-c]pyridine-5-carbonyl)piperazin-1-yl)-7-oxo-[1,2,4]triazolo[1,5-a]pyrimidin-4(7H)-yl)-N-(3-(trifluoromethyl)bicyclo[1.1.1]pentan-1-yl)acetamide], in assay [1], the IC50 was in the range of 0.005 to 0.05 µM. Moreover, in assay [2] (Homo sapiens, HCT-116, 24 h), the EC50 fell in the range of 2 to 5 µM.
